Data from patent US11225503B2, “Crystobactamides” (HELMHOLTZ-ZENTRUM FÜR INFEKTIONSFORSCHUNG GMBH, priority 2013, dated 2022).
Values after ≈ are worked out from the molar mass of the structure shown.

What was measured:
Type in all cases: cell-based
[1] = system: E. coli WT; assay: Susceptibility of mutant E. coli strains, MIC; conditions: Escherichia coli WT
Excerpt: (§1) Cystobactamides were screened using a panel of E. coli strains with typical mutations in gyrA and parC genes (Table 11).
High-level quinolone resistance often results from a combination of several target site mutations and altered efflux mechanisms. […] This, in turn, leads to overproduction of MarA and AcrAB and overexpression of the AcrAB efflux pump is associated with the MAR (multiple antibiotic resistance) phenotype.^[5]
(§2) Bacterial wildtype strains used in susceptibility assays were either part of our strain collection or purchased from the German Collection of Microorganisms and Cell Cultures (DSMZ) or from the American Type Culture Collection (ATCC). E. coli strain WT^[6] and E. coli mutants were kindly provided by Prof. Dr. P. Heisig, Pharmaceutical Biology and Microbiology, University of Hamburg.
(§3) MIC values were determined in microdilution assays. Overnight cultures were diluted in the appropriate growth medium to achieve an inoculum of 10^4-10^6 cfu/mL. Yeasts were grown in Myc medium (1% phytone peptone, 1% glucose, 50 mM HEPES, pH 7.0), S. pneumonia and E. faecalis in tryptic soy broth (TSB: 1.7% peptone casein, 0.3% peptone soymeal, 0.25% glucose, 0.5% NaCl, 0.25% K2HPO4; pH 7.3); M. smegmatis in Middlebrook 7H9 medium supplemented with 10% Middlebrook ADC enrichment and 2 ml/l glycerol). All other listed bacteria were grown in Müller-Hinton broth (0.2% beef infusion solids, 1.75% casein hydrolysate, 0.15% starch, pH 7.4). Cystobactamides and reference drugs were added directly to the cultures in sterile 96-well plates as duplicates and serial dilutions were prepared. Microorganisms were grown on a microplate shaker (750 rpm, 30-37° C., 18-48 h), except S. pneumonia, which was grown at non-shaking conditions (37° C., 5% CO2, 18 h). Growth inhibition was assessed by visual inspection and the MIC was defined as the lowest concentration of compound that inhibited visible growth.

[2] = system: Primary HUVEC (human umbilical vein endothelial cells)
Experimental: (§4) Human HCT-116 colon carcinoma cells (CCL-247) were obtained from the American Type Culture Collection (ATCC) and Chinese hamster ovary CHO-K1 cells (ACC-110) were obtained from the German Collection of Microorganisms and Cell Cultures (DSMZ). Both cell lines were cultured under the conditions recommended by the respective depositor. Primary HUVEC (human umbilical vein endothelial cells; single donor) were purchased from PromoCell (Heidelberg, Germany) and cultured in Endothelial Cell Growth Medium (PromoCell) containing the following supplements: 2% FCS, 0.4% ECGS, 0.1 ng/ml EGF, 1 ng/ml bFGF, 90 μg/ml heparin, 1 μg/ml hydrocortisone.
(§5) Cells were seeded at 6×10^3 cells per well of 96-well plates (Corning CellBind®) in complete medium (180 μl) and directly treated with cystobactamides dissolved in methanol in a serial dilution. Compound were tested in duplicate for 5 d, as well as the internal solvent control. After 5 d incubation, 5 mg/ml MTT in PBS (20 μL) was added per well and it was further incubated for 2 h at 37° C.[7] The medium was then discarded and cells were washed with PBS (100 μl) before adding 2-propanol/10N HCl (250:1, v/v; 100 μl) in order to dissolve formazan granules. The absorbance at 570 nm was measured using a microplate reader (EL808, Bio-Tek Instruments Inc.).

[3] = system: Human HCT-116 colon carcinoma cells
Experimental: as §4, §5

[4] = system: several microorganisms and cell lines; assay: Biological evaluation, summary statements over the MIC and cytotoxicity tests
Experimental: as §5, §3

[5] = system: Escherichia coli MI-4 [gyrA(S83L), parC(S801)]; assay: Susceptibility of mutant E. coli strains, MIC
Excerpt: as §1

[6] = system: Pichia anomala DSM-6766; assay: Susceptibility testing, MIC microdilution; conditions: Pichia anomala DSM-6766
Experimental: as §2, §3

[7] = system: Escherichia coli DSM-12242 (NAL^R); assay: Susceptibility testing, MIC microdilution; conditions: Escherichia coli DSM-12242 (NAL^R)
Experimental: as §2, §3

[8] = system: Escherichia coli ATCC35218; assay: Susceptibility testing, MIC microdilution
Experimental: as §2, §3

[9] = system: Pseudomonas aeruginosa ATCC27853; assay: Susceptibility testing, MIC microdilution
Experimental: as §2, §3

[10] = system: Klebsiella pneumoniae DSM-30104; assay: Susceptibility testing, MIC microdilution; conditions: Klebsiella pneumoniae DSM-30104
Experimental: as §2, §3

[11] = system: Enterococcus faecalis ATCC29212; assay: Susceptibility testing, MIC microdilution
Experimental: as §2, §3

[12] = system: Escherichia coli ATCC25922; assay: Susceptibility testing, MIC microdilution
Experimental: as §2, §3

[13] = system: Burkholderia cenocepacia DSM-16553; assay: Susceptibility testing, MIC microdilution; conditions: Burkholderia cenocepacia DSM-16553
Experimental: as §2, §3

[14] = system: Micrococcus luteus DSM-1790; assay: Susceptibility testing, MIC microdilution; conditions: Micrococcus luteus DSM-1790
Experimental: as §2, §3

[15] = system: Chromobacterium violaceum DSM-30191; assay: Susceptibility testing, MIC microdilution; conditions: Chromobacterium violaceum DSM-30191
Experimental: as §2, §3

[16] = system: Enterobacter aerogenes DSM-30053; assay: Susceptibility testing, MIC microdilution; conditions: Enterobacter aerogenes DSM-30053
Experimental: as §2, §3

[17] = system: Staphylococcus aureus ATCC29213; assay: Susceptibility testing, MIC microdilution
Experimental: as §2, §3

[18] = system: Bacillus subtilis DSM-10; assay: Susceptibility testing, MIC microdilution; conditions: Bacillus subtilis DSM-10
Experimental: as §2, §3

[19] = system: Streptococcus pneumoniae DSM-20566; assay: Susceptibility testing, MIC microdilution; conditions: Streptococcus pneumoniae DSM-20566
Experimental: as §2, §3

[20] = system: Candida albicans DSM-1665; assay: Susceptibility testing, MIC microdilution; conditions: Candida albicans DSM-1665
Experimental: as §2, §3

[21] = system: Acinetobacter baumannii DSM-30008; assay: Susceptibility testing, MIC microdilution; conditions: Acinetobacter baumannii DSM-30008
Experimental: as §2, §3

[22] = system: Escherichia coli DSM-26863 (tolC3); assay: Susceptibility testing, MIC microdilution; conditions: Escherichia coli DSM-26863 (tolC3)
Experimental: as §2, §3

[23] = system: Mycobacterium smegmatis mc^2155 ATCC700084; assay: Susceptibility testing, MIC microdilution; conditions: Mycobacterium smegmatis mc^2155 ATCC700084
Experimental: as §2, §3

[24] = system: Escherichia coli DSM-1116; assay: Susceptibility testing, MIC microdilution; conditions: Escherichia coli DSM-1116
Experimental: as §2, §3

[25] = system: E. coli strain WT-3.2 (single-step gyrA mutation); assay: Susceptibility of mutant E. coli strains, MIC; conditions: Escherichia coli WT-3.2 [gyrA(D87G)]
Excerpt: as §1, §2, §3

[26] = system: E. coli strain MI (single-step gyrA mutation); assay: Susceptibility of mutant E. coli strains, MIC; conditions: Escherichia coli MI [gyrA(S83L)]
Excerpt: as §1, §2, §3

[27] = system: E. coli strain WT-4 M2.1 (parC mutation); assay: Susceptibility of mutant E. coli strains, MIC; conditions: Escherichia coli WT-4 M2.1 [parC(S801)]
Excerpt: as §1, §2, §3

[28] = system: E. coli strain WT-3 (combination of both gyrA mutations); conditions: Escherichia coli WT-3 [gyrA(S83L, D87G)]
Excerpt: as §1, §2
as §3, with “Cystobactamides and reference drugs were added directly to the cultures in sterile 96-well plates as duplicates and serial dilutions were prepared. Microorganisms were grown on a microplate shaker (750 rpm, 30-37° C., 18-48 h), except S. pneumonia, which was grown at non-shaking conditions (37° C., 5% CO2, 18 h).” left out

[29] = system: E. coli strain WT III (marR Δ74 bp); assay: Susceptibility of mutant E. coli strains, MIC
Experimental: as §2, §3

`COC(C(=O)Nc1ccc(C(=O)Nc2ccc(C(=O)Nc3ccc(C(=O)O)cc3OC(C)C)c(O)c2OC(C)C)cc1)C(NC(=O)c1ccc(NC(=O)c2ccc([N+](=O)[O-])cc2)cc1)C(=O)O` (stereo not shown) [cystobactamide B] was tested, and the MIC [1] was 1.8 µg/mL, the GI50 [2] was over 50 µM and the GI50 [3] was over 50 µM. The “inhibition of pathogenic Gram-negative strains A. baumannii and P. aeruginosa (MIC range)” value ([4]; A. baumannii and P. aeruginosa) was “low μg/ml range”, the “average potency on Gram-positive bacteria compared with ciprofloxacin” value ([4]; E. faecalis, S. aureus, S. pneumonia, average MIC) was “exceeded that of ciprofloxacin” and the MIC [5] was 1.8 µg/mL (≈ 1.95 µM). The MIC [6] was over 59 µg/mL, the MIC [7] was 3.7 µg/mL (≈ 4.02 µM) and the MIC [8] was 1.8 µg/mL (≈ 1.95 µM). It also gave an MIC [9] of 14.7 µg/mL (≈ 16 µM), an MIC [10] of over 59 µg/mL and an MIC [11] of 0.23 µg/mL (≈ 0.25 µM). For the same compound, the MIC [12] was 0.9 µg/mL (≈ 0.977 µM), the MIC [13] was over 59 µg/mL and the MIC [14] was 0.23 µg/mL (≈ 0.25 µM). The MIC [15] was 14.7 µg/mL (≈ 16 µM), the MIC [16] was over 59 µg/mL and the MIC [17] was 0.12 µg/mL (≈ 0.13 µM). The MIC [18] was 0.46 µg/mL (≈ 0.5 µM), the MIC [19] was 0.46 µg/mL (≈ 0.5 µM) and the MIC [20] was over 59 µg/mL. For the same compound, the MIC [21] was 3.7 µg/mL (≈ 4.02 µM), the MIC [22] was 1.8 µg/mL (≈ 1.95 µM) and the MIC [23] was over 59 µg/mL. The MIC [24] was 1.8 µg/mL (≈ 1.95 µM), the MIC [25] was 3.7 µg/mL (≈ 4.02 µM) and the MIC [26] was 3.7 µg/mL (≈ 4.02 µM). For the same compound, the MIC [27] was 1.8 µg/mL (≈ 1.95 µM), the MIC [28] was 7.4 µg/mL (≈ 8.04 µM) and the “MIC, in words” value ([29]; E. coli WT III) was “in the μg/ml range”. It also gave an MIC ([29]; Escherichia coli WTIII [marRΔ74bp]) of 3.7 µg/mL (≈ 4.02 µM).
